Residues, ends and D or L forms follow the SMILES beside them.
Molecular target: T1, IKKα/β heterodimer (Homo sapiens, UniProt O14920+O15111, S176E/S177E/S180E/S181E)
T1 construct: co-expression of 6×His-IKKβ(1-669) EE and Strep-IKKα(10-667) EE constructs in insect cells; Strep (followed by TEV site) (N); 6×His (followed by TEV site) (N); made in house; host or cells: Sf21 insect cells (co-infection with two baculoviruses)
T1 sequence (O15111 10-667 S176E/S180E): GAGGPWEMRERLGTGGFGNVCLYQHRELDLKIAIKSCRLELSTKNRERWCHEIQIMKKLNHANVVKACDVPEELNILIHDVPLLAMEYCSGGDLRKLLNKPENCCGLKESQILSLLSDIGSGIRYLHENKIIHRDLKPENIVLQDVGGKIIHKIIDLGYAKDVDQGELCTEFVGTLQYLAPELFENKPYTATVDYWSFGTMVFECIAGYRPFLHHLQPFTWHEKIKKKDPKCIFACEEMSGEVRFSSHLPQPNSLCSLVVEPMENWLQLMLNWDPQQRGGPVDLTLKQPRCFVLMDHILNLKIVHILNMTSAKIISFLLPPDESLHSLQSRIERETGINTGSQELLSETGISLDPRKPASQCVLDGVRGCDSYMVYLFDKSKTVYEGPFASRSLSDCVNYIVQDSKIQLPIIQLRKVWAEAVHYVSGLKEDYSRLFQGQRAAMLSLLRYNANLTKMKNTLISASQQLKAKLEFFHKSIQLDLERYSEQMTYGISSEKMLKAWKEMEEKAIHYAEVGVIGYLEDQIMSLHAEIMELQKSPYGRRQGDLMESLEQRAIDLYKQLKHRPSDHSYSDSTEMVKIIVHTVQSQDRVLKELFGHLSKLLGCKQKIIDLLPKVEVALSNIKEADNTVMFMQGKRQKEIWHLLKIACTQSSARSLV
T1 sequence (O14920 1-669 S177E/S181E): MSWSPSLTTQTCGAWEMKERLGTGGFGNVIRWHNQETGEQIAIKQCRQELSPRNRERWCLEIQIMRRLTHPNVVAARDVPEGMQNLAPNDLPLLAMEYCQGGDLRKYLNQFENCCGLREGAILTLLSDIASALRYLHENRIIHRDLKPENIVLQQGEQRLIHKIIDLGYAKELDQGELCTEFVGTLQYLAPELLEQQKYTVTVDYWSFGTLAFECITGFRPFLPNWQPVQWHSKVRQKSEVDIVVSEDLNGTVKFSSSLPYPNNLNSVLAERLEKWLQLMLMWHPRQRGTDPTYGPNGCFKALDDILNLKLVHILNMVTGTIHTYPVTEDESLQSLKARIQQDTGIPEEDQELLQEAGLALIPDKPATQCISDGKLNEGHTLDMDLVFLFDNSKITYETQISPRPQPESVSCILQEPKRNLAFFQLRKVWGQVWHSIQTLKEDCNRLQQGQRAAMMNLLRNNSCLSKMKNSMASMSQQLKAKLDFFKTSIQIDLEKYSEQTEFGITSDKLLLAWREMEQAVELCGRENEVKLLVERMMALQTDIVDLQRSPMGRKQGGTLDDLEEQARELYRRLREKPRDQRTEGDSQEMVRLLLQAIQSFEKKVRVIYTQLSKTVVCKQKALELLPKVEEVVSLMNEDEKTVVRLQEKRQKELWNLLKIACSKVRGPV
Experiment: MBP-pulldown of reconstituted IKKα/β heterodimer
Assay type: binding
Experimental: IKKα/β heterodimer. SF21 cells expressing the Strep-IKKα(10-667) EE and 6×His-IKKβ(1-669) EE proteins were resuspended in lysis buffer (100 mM Tris-HCl pH 8.0, 150 mM NaCl, 10% glycerol, 2 mM DTT, 2 μg/ml DNaseI, 0.2 μg/ml RNAse, Roche Complete protease inhibitor cocktail) and lysed by mild sonication. Lysates were centrifuged at 14500 g for 45 minutes at 4° C. The supernatants were applied by gravity flow to Strep-Tactin XT 4F resin (IBA-lifesciences) pre-equilibrated in wash buffer (100 mM Tris-HCl pH 8, 150 mM NaCl, 10% glycerol, 1 mM EDTA, and 2 mM DTT). The resin was extensively washed with wash buffer and the proteins eluted with elution buffer (100 mM Tris-HCl pH 8, 150 mM NaCl, 10% glycerol, 2 mM DTT, and 50 mM biotin). The eluate was then applied to Ni^2+-NTA resin, which was washed and eluted as described above for the IKK homodimers. IKKα/β heterodimer samples were then concentrated and incubated in presence of 1 mM ATP plus additives (see above) for 1 hour on ice. Finally, samples were purified by gel filtration chromatography using a Superdex 200 10/30 column (GE Healthcare) pre-equilibrated in gel filtration buffer 1 (20 mM Tris-HCl PH 8.0, 150 mM NaCl, 5% Glycerol, 2 mM DTT).
Experiments were performed in PD buffer (20 mM Tris pH 8.0, 150 mM NaCl, 2 mM DTT). […] Quantification of band intensity was done using the Image J software. […]

CC(C)C[C@H](NC(=O)[C@@H](NC(=O)[C@H](CC(C)C)NC(=O)[C@H](CCCNC(=N)N)NC(=O)[C@H](CCC(N)=O)NC(=O)CNC(=O)CNC(=O)[C@H](Cc1ccccc1)NC(=O)[C@@H](NC(=O)[C@H](CS)NC(=O)[C@H](CC(=O)O)NC(=O)[C@H](CC(=O)O)NC(=O)[C@H](Cc1ccc(O)cc1)NC(=O)[C@@H]1CCCN1C(=O)[C@H](CC(C)C)NC(=O)[C@H](CCC(=O)O)NC(=O)[C@H](CC(=O)O)NC(=O)[C@H](CCC(=O)O)NC(=O)[C@@H](NC(=O)[C@H](Cc1ccccc1)NC(=O)[C@@H](N)CCC(=O)O)[C@@H](C)O)C(C)C)[C@@H](C)O)C(=O)O [IκBα pep] (H-EFTEDELPYDDCVFGGQRLTL-OH; N-terminus and C-terminus assumed)
binding of IKKα/β heterodimer by pulldown: efficiently binds
